Data on three molecules can be found in patent US20240018132A1, “5-HYDROXY-1,4-NAPHTHALENEDIONE FOR USE IN THE TREATMENT OF CANCER” (GODAVARI BIOREFINERIES LIMITED, priority 2020, published 2024).

The structures appear in SMILES notation. pIC50: −log10 of the molar value.

Broadly, the pIC50 is the IC50 on a negative log10 scale, so that one unit is a factor of ten. Higher therefore signals a low IC50.

In this assay the test system is Human lymphocytes. Put plainly: Lymphocyte assay (MTT on normal cells). The following applies: human peripheral blood lymphocytes, MTT procedure; for pIC50: Lymphocyte. In kind it is cell-based. Put shortly: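 Lymphocytes from human peripheral blood isolated by density-gradient centrifugation on HiSep LSM 1077, washed in D.P.B.S; only cells with purity and viability above 95% used. Seeded at 0.7 million/ml and assessed by MTT.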

For `O=C1C(c2ccc3c(c2)OCO3)=CC(=O)c2c(OCCCCN3CCOCC3)cccc21` [Formula 2, 5-(4-morpholinobutoxy)-2-(benzo[d][1,3]dioxol-6-yl)naphthalene-1,4-dione], the negative-log IC50 (pIC50) is 4.94.
In the case of `O=C1C(NC2CCCCC2)=CC(=O)c2c(OCCN3CCOCC3)cccc21` [Formula 52], the “Activity on Lymphocytes (IC50)” value is reported as “No activity”.
Molecule `COc1ccc(NC2=CC(=O)c3c(OCCN4CCOCC4)cccc3C2=O)cc1OC` [Formula 40, 5-(2-morpholinoethoxy)-2-(3,4-dimethoxyphenylamino) naphthalene-1,4-dione] showed a negative logarithm of the IC50 (pIC50) of 4.88.
